Assay results reported in patent US12655116B2, “Substituted isophthalic acid diamides” (Bayer Aktiengesellschaft, priority 2020, dated 2026).

Columns and labels:
MATIN = assay: Pre-emergence herbicidal action against MATIN; format: in vivo, Matricaria inodora; conditions: Tripleurospermum inodorum, 504 h; for pest or weed control at 20 g/ha: dosage 20 g/ha; for pest or weed control at 80 g/ha: dosage 80 g/ha
Procedure, shortened: (§1)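 Herbicidal effect was assessed 3 weeks after treatment by visual comparison with untreated controls, 100% denoting dead plants. Aqueous WP or EC preparations had been applied at 600 to 800 l/ha with 0.2% wetting agent to the soil covering freshly sown seeds.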

ABUTH [1] = assay: Pre-emergence herbicidal action against ABUTH; format: in vivo, Abutilon theophrasti; conditions: Abutilon theophrasti, 504 h; for pest or weed control at 80 g/ha: scored visually after 3 weeks vs untreated controls (100% = plants have died, 0% = like control plants)
Procedure, shortened: as §1

DIGSA [2] = assay: Post-emergence herbicidal action against DIGSA; format: in vivo, Digitaria sanguinalis; conditions: Digitaria sanguinalis, 504 h
Procedure, shortened: (§2)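 Post-emergence greenhouse test; one-leaf stage, 2–3 wk post-sowing, sandy loam. Foliar spray of WP/EC in water, 600–800 l/ha, +0.2% wetting agent. Visual % action at ~3 wk vs untreated (100% = plants dead).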

VIOTR [3] = assay: Pre-emergence herbicidal action against VIOTR; format: in vivo, Viola tricolor; conditions: Viola tricolor, 504 h; for pest or weed control at 80 g/ha: dosage 80 g/ha
Procedure, shortened: as §1

DIGSA [4] = assay: Pre-emergence herbicidal action against DIGSA; format: in vivo, Digitaria sanguinalis; conditions: Digitaria sanguinalis, 504 h; for pest or weed control at 80 g/ha: dosage 80 g/ha
Procedure, shortened: as §1

VERPE [5] = assay: Post-emergence herbicidal action against VERPE; format: in vivo, Veronica persica; conditions: Veronica persica, 504 h, 20 g/ha
Procedure, shortened: as §2

ABUTH [6] = assay: Post-emergence herbicidal action against ABUTH; format: in vivo, Abutilon theophrasti; conditions: Abutilon theophrasti, 504 h, visual assessment about 3 weeks after treatment vs untreated controls; for pest or weed control at 5 g/ha: dosage 5 g/ha; for pest or weed control at 20 g/ha: dosage 20 g/ha
Procedure, shortened: as §2

AMARE [7] = assay: Pre-emergence herbicidal action against AMARE; format: in vivo, Amaranthus retroflexus; conditions: Amaranthus retroflexus, 504 h, scored visually after 3 weeks vs untreated controls, 100% = plants have died, 0% = like control plants
Procedure, shortened: as §1

PHBPU [8] = assay: Pre-emergence herbicidal action against PHBPU; format: in vivo, Pharbitis purpurea; conditions: Ipomoea purpurea, 504 h, dosage 80 g/ha
Procedure, shortened: as §1

ECHCG [9] = assay: Pre-emergence herbicidal action against ECHCG; format: in vivo, Echinochloa crus-galli; conditions: Echinochloa crus-galli, 504 h
Procedure, shortened: as §1

PHBPU [10] = assay: Post-emergence herbicidal action against PHBPU; format: in vivo, Pharbitis purpurea; conditions: Ipomoea purpurea, 504 h; for pest or weed control at 20 g/ha: dosage 20 g/ha
Procedure, shortened: as §2

ALOMY [11] = assay: Pre-emergence herbicidal action against ALOMY; format: in vivo, Alopecurus myosuroides; conditions: Alopecurus myosuroides, 504 h, pre-emergence; for pest or weed control at 80 g/ha: scored visually after 3 weeks vs untreated controls (100% = plants have died, 0% = like control plants)
Procedure, shortened: as §1

ECHCG [12] = assay: Post-emergence herbicidal action against ECHCG; format: in vivo, Echinochloa crus-galli; conditions: Echinochloa crus-galli, 504 h
Procedure, shortened: as §2

SETVI [13] = assay: Pre-emergence herbicidal action against SETVI; format: in vivo, Setaria viridis; conditions: Setaria viridis, 504 h; for pest or weed control at 80 g/ha: dosage 80 g/ha
Procedure, shortened: as §1

POLCO = assay: Pre-emergence herbicidal action against POLCO; format: in vivo, Polygonum convolvulus; conditions: Fallopia convolvulus, 504 h, dosage 80 g/ha
Procedure, shortened: as §1

AVEFA [14] = assay: Post-emergence herbicidal action against AVEFA; format: in vivo, Avena fatua; conditions: Avena fatua, 504 h, 20 g/ha, visual assessment about 3 weeks after treatment, 100% = plants have died, 0% = like control plants
Procedure, shortened: as §2

VIOTR [15] = assay: Post-emergence herbicidal action against VIOTR; format: in vivo, Viola tricolor; conditions: Viola tricolor, 504 h
Procedure, shortened: as §2

LOLRI = assay: Pre-emergence herbicidal action against LOLRI; format: in vivo, Lolium rigidum; conditions: Lolium rigidum, 504 h, 80 g/ha
Procedure, shortened: as §1

AMARE [16] = assay: Post-emergence herbicidal action against AMARE; format: in vivo, Amaranthus retroflexus; conditions: Amaranthus retroflexus, 504 h, 20 g/ha, visual assessment about 3 weeks after treatment, 100% = plants have died, 0% = like control plants
Procedure, shortened: as §2

VERPE [17] = assay: Pre-emergence herbicidal action against VERPE; format: in vivo, Veronica persica; conditions: Veronica persica, 504 h, dosage 80 g/ha
Procedure, shortened: as §1

SETVI [18] = assay: Post-emergence herbicidal action against SETVI; format: in vivo, Setaria viridis; conditions: Setaria viridis, 504 h
Procedure, shortened: as §2

ALOMY [19] = assay: Post-emergence herbicidal action against ALOMY; format: in vivo, Alopecurus myosuroides; conditions: Alopecurus myosuroides, 504 h, dosage 20 g/ha, visual assessment about 3 weeks after treatment vs untreated controls
Procedure, shortened: as §2

AVEFA [20] = assay: Pre-emergence herbicidal action against AVEFA; format: in vivo, Avena fatua; conditions: Avena fatua, 504 h, pre-emergence
Procedure, shortened: as §1

[21] = 20 g/ha, scored visually after 3 weeks, 100% = plants have died, 0% = like control plants

SMILES	pest or weed control at 20 g/ha (MATIN)	pest or weed control at 80 g/ha (MATIN)	pest or weed control at 80 g/ha (ABUTH [1])	pest or weed control at 5 g/ha (DIGSA [2])	pest or weed control at 20 g/ha (DIGSA [2])	pest or weed control at 80 g/ha (VIOTR [3])	pest or weed control at 80 g/ha (DIGSA [4])	pest or weed control at 20 g/ha (VERPE [5])	pest or weed control at 5 g/ha (ABUTH [6])	pest or weed control at 20 g/ha (ABUTH [6])	pest or weed control at 20 g/ha (AMARE [7])	pest or weed control at 80 g/ha (AMARE [7])	pest or weed control at 80 g/ha (PHBPU [8])	pest or weed control at 20 g/ha (ECHCG [9])	pest or weed control at 80 g/ha (ECHCG [9])	pest or weed control at 20 g/ha (PHBPU [10])	pest or weed control at 80 g/ha (ALOMY [11])	pest or weed control at 80 g/ha (SETVI [13])	pest or weed control at 80 g/ha (POLCO)	pest or weed control at 20 g/ha (AVEFA [14])	further results
CNC(=O)c1c(C(F)F)ccc(C(=O)Nc2nnnn2C)c1Br [Example 1-225]	90%	100%	80%	90%	90%	100%	90%	90%	80%	80%	100%	100%	100%	90%	100%	80%	100%	100%	90%	80%	pest or weed control at 5 g/ha (ECHCG [12]; dosage 5 g/ha): 90%; pest or weed control at 20 g/ha (ECHCG [12]; dosage 20 g/ha): 100%; pest or weed control at 20 g/ha (SETVI [13]; dosage 20 g/ha): 90%; pest or weed control at 20 g/ha (VIOTR [15]): 80%; pest or weed control at 80 g/ha (LOLRI): 80%; pest or weed control at 20 g/ha (AMARE [16]): 100%; pest or weed control at 80 g/ha (VERPE [17]): 80%; pest or weed control at 5 g/ha (SETVI [18]; dosage 5 g/ha): 90%; pest or weed control at 20 g/ha (SETVI [18]; dosage 20 g/ha): 100%; pest or weed control at 20 g/ha (ALOMY [19]): 90%; pest or weed control at 80 g/ha (AVEFA [20]): 80%; pest or weed control at 20 g/ha (AVEFA [20]; [21]): 80%
Cn1nnnc1NC(=O)c1ccc(C(F)F)c(C(=O)NC2CC2)c1Br [Example 1-227]	80%	100%	100%	100%	100%	100%	100%	80%	100%	100%	100%	100%	80%	80%	90%	90%	100%	100%	90%	80%	pest or weed control at 20 g/ha (ABUTH [1]; dosage 20 g/ha, scored visually after 3 weeks vs untreated controls, 100% = plants have died, 0% = like control plants, read-out: Pre-emergence action against ABUTH (herbicidal activity in percent)): 100%; pest or weed control at 20 g/ha (VIOTR [3]; dosage 20 g/ha): 100%; pest or weed control at 20 g/ha (DIGSA [4]; dosage 20 g/ha): 100%; pest or weed control at 5 g/ha (PHBPU [10]; dosage 5 g/ha): 80%; pest or weed control at 20 g/ha (ALOMY [11]; [21]): 80%; pest or weed control at 5 g/ha (VIOTR [15]; 5 g/ha): 100%; pest or weed control at 20 g/ha (VIOTR [15]): 100%; pest or weed control at 80 g/ha (LOLRI): 90%; pest or weed control at 20 g/ha (AMARE [16]): 100%; pest or weed control at 80 g/ha (VERPE [17]): 100%; pest or weed control at 80 g/ha (AVEFA [20]): 90%
